These results are taken from article PMC6153520, “Proteasome inhibition and mechanism of resistance to a synthetic, library-based hexapeptide” (Investigational New Drugs, 2018).

Data set [1] has as its system THP1/BTZ200. Description: Growth inhibition assay (72 h, trypan blue). Type of data set: cell-based, human. To be noted: relative to IC50 in THP1/WT. On the procedure:
(§1) Human monocytic/macrophage THP1 cells (ATTC, Manassas, USA) were cultured in RPMI-1640 medium supplemented with 5% fetal calf serum, 20 mM HEPES, 2 mM glutamine and 100 μg/ml penicillin/ streptomycin at 5% CO2 and 37 °C. Cell cultures were seeded at a density of 3 × 10^5 cells/ml and refreshed twice weekly. […] Some specific experiments also included THP1/BTZ100 cells that were cultured in the absence of BTZ for 6 months (further designated as THP1/BTZ (−100) cells). Mouse thymoma EL4 and human multiple myeloma H929 cells were cultured in RPMI-1640 medium supplemented with 8% fetal calf serum and 100 μg/ml penicillin/streptomycin at 5% CO2 and 37 °C.
(§2) Evaluation of drug sensitivity was carried out as described before. Cells were seeded at an initial density of 1.25 × 10^5 cells/ml in individual wells of a 24-well plate containing up to 50 μl of drug solutions. Inhibition of cell growth was determined after 72 h of incubation at 37 °C by determining the number of viable cells […] using trypan blue exclusion. The drug concentration required to inhibit cell growth by 50% compared to untreated controls was defined as the IC50.

Data set [2] deals with THP1/BTZ50. Description: Growth inhibition assay (72 h, trypan blue). Type of data set: cell-based, human. To be noted: relative to IC50 in THP1/WT. On the procedure: as §1, §2
The target in data set [3] is T1, chymotrypsin-like proteasome activity (Homo sapiens, UniProt P28074).
T1 construct: chymotrypsin-like proteasome activity in intact THP1 cells after 1 h exposure; endogenous in cells; host or cells: THP1 (wild type)
As to the kind of experiment: Proteasome-Glo cell-based assay in intact THP1 cells.

Data set [4] has as its system trypsin-like proteasome activity. As to the kind of experiment: Proteasome activity in THP1 cell extracts (fluorogenic substrate). Conditions: 1–100 μM, 1 h exposure. Type of data set: biochemical, human. On the procedure:
Chymotrypsin-like, trypsin-like and caspase-like proteolytic activities of the proteasome were determined in freshly prepared cell lysates as described previously. Five million untreated or bortezomib-exposed THP1 cells were washed 3 times with ice-cold PBS and pelleted by centrifugation (5 min, 12,000 RPM, 4 °C). Cell pellets were then resuspended in an ATP-containing lysis buffer; 10 mM Tris-HCl buffer (pH 7.8) containing 5 mM ATP, 0.5 mM DTT and 5 mM MgCl2, and kept on ice for 10 min. For complete lysis, cells were sonicated (MSE sonicator, amplitude 7, for 3 × 5 s with 20 s time intervals at 4 °C) followed by centrifugation (5 min, 12,000 RPM, 4 °C) to remove cell debris. The supernatant was collected and protein concentration was determined using the Bio-Rad protein assay. […] The release of amc (7-amino-4-methyl-coumarin) was monitored online over a 2-h time period at 37 °C with 5 min intervals. Fluorescence was measured on a Tecan SpectraFluor apparatus (Giessen, The Netherlands) using excitation and emission wavelengths of 360 and 465 nm, respectively. Proteolytic activity was calculated from the slopes of the linear portion of the curves. All results were expressed as percentage relative to untreated THP1/WT cells (100%). […]

In data set [5] the target is T2, proteasome β5 subunit (Mus musculus, UniProt O55234).
T2 construct: Activity probing of constitutive and immunoproteasome β-subunits in EL4 cells; endogenous in cells; host or cells: EL4 mouse thymoma cells
Description: Proteasome affinity labelling in EL4 cells. Conditions: EL4 cells pre-exposed for 2–24 h. The format is cell-based. On the procedure:
Proteasome activity profiling assays were performed as described using a close analog of the BodipyFL probe. Briefly, mouse EL4 thymoma cells were incubated at 37 °C for 2 or 24 h with increasing concentrations of 4A6, followed by a 1 h chase with 500 nM probe. […] Cells were harvested and lysed for 30 min in NP40 lysis buffer (50 mM Tris, pH 7.4, 150 mM NaCl, 1% NP40) at 4°C. The Bradford assay was used to measure protein content. Proteins were denatured by boiling in reducing sample buffer and analyzed by 12% SDS-PAGE using NuPAGE pre-cast gels (Invitrogen). Gels were then scanned for fluorescence emission using a ProXPRESS 2D Proteomic imaging system (Perkin Elmer). Images were analyzed using Totallab analysis software (Nonlinear Dynamics, Newcastle upon Tyne, UK). Sypro staining served as a loading control.

For data set [6], the target named is T3, proteasome purified from bovine liver (Bos taurus, UniProt Q32KL2).
T3 construct: Proteasome was purified from bovine liver as described previously; from tissue; host or cells: bovine liver
As to the kind of experiment: 4A6 cleavage assay (MALDI-TOF). The format is biochemical. Conditions: 1 μg proteasome, 1 μg 4A6, pH 8.5, 45 °C, 16 h. As for the experimental part: Proteasome was purified from bovine liver as described previously. For digestion assays, 1 μg proteasome was incubated with 1 μg 4A6 in 50 μl of 50 mM Tris-HCl buffer pH 8.5 at 45 °C for 16 h. Subsequently, the reaction mixture was lyophilized and peptides purified using reversed-phase ZipTip®C18 tips (Millipore). The purified peptide mixture was mixed in a 1:1 ratio with 10 mg/ml 2,5-dihydroxybenzoic acid (DHB, Bruker Daltonik) matrix solution in 0.1% TFA and spotted onto a MALDI (matrix assisted laser desorption/ ionization) target plate. MALDI-TOF analysis was performed on an Autoflex, linear MALDI-TOF-MS (Bruker Daltonik GmbH, Bremen, Germany). Spectra were analyzed with flexAnalysis software (Bruker Daltonik).

The subject of data set [7] is THP1/BTZ200 cells. Description: Apoptosis assay (Annexin-V/7-AAD flow cytometry). To be noted: 24 h, 4A6 over 0–25 μM. The format is cell-based, human. As for the experimental part: (§3) Induction of apoptosis was analyzed by flow cytometry using APOPTEST™-FITC A700 (VPS Diagnostics, Hoeven, the Netherlands) according to the instructions of the manufacturer. In short, induction of apoptosis was determined after 24 h’ drug exposure. One million cells were harvested and washed 3 times with ice-cold PBS. The cell pellet was incubated for 30 min with 7-Amino-actinomycin D (7-AAD) on ice followed by incubation with Annexin-V according to the instructions of the manufacturer. Annexin-V (early apoptosis) and 7-AAD (late apoptosis) staining was measured by flow cytometry (Beckton & Dickinson, FACScalibur) and analysed using FCSexpress V3 software (Denovo software, Thornhill, Canada).
For orientation: A flow cytometer gives signals particle by particle.

The subject of data set [8] is THP1/WT cells. As to the kind of experiment: Apoptosis assay (Annexin-V/7-AAD flow cytometry). The format is cell-based, human. To be noted: 24 h exposure. On the procedure: as §3
The test system of data set [9] is P-glycoprotein (Pgp/ABCB1). More on the design: method as in PMID 11289130. Conditions: ref [32]; cited from earlier work.

Where a SMILES comes first, the peptide text is derived from it. [ ]: non-standard residue; d: D form. The star is where a group is joined. His(τ-Bzl) = N[C@@H](Cc1cn(Cc2ccccc2)cn1)C(=O)O; Nle = CCCC[C@H](N)C(=O)O; NHBn = c1ccc(CN*)cc1; Bn = c1ccc(C*)cc1; OtBu = CC(C)(C)O*; tBu = CC(C)(C)*

For `CCCC[C@H](NC(=O)[C@@H](NC(=O)[C@H](Cc1cn(Cc2ccccc2)cn1)NC(=O)[C@@H](NC(C)=O)[C@@H](C)OC(C)(C)C)[C@@H](C)OCc1ccccc1)C(=O)N[C@@H](CCC(=O)OC(C)(C)C)C(=O)NCC(=O)NCc1ccccc1` [4A6, Ac-Thr(tBu)-His(Bzl)-Thr(Bzl)-Nle-Glu(OtBu)-Gly-Bza] (Ac-T(tBu)[His(τ-Bzl)]T(Bn)[Nle]E(OtBu)G-NHBn), the “[Resistance Factor] THP1/BTZ200” value in data set [1] came out at 287. Further, the “[Resistance Factor] THP1/BTZ50” value in data set [2] is listed as 44. Further, in data set [3], the “potency fold lower than BTZ, chymotrypsin-like proteasome activity” value came out at 28 fold. Further, in data set [4], the “inhibitory effect on trypsin-like activity” value is “no inhibitory effect”. Further, in data set [5], the “concentration giving complete inhibition of the β5 subunit” value is over 5 µM. Also, in data set [6], the “proteolytic cleavage by purified proteasomes” value was “predominantly cleaved at the P4-P5 position”. Further, in [7], the induction of apoptosis entry is given as “none”. The induction of apoptosis result in [8] is listed as “efficient induction of apoptosis”. Also, in data set [9], the “ability to reverse efflux pump MDR (ABCB1)” value is on record as “lacked the ability to reverse efflux pump MDR” and the “substrate of MDR efflux transporter ABCB1” value was “substrate”.
